Measured values: ChEMBL document CHEMBL5303573, “Mapping human microbiome drug metabolism by gut bacteria and their genes” (Nature, 2019)

Assays:
[1] = The drug is tested on Enterococcus faecalis strain: V583 for biotransformation. The drug concentrations were measured before and after a 12-h incubation by liquid-chromatography-coupled mass spectrometry (LC–MS); details: 2 µM
[2] = The drug is tested on Bacteroides fragilis strain: HMW610 for biotransformation. The drug concentrations were measured before and after a 12-h incubation by liquid-chromatography-coupled mass spectrometry (LC–MS); details: 2 µM
[3] = segatella copri, 12 h, 2 µM
Description: The drug is tested on Prevotella copri strain: DSM18205 for biotransformation. The drug concentrations were measured before and after a 12-h incubation by liquid-chromatography-coupled mass spectrometry (LC–MS)

[4] = The drug is tested on Ruminococcus lactaris strain: ATCC29176 for biotransformation. The drug concentrations were measured before and after a 12-h incubation by liquid-chromatography-coupled mass spectrometry (LC–MS); details: 2 µM
[5] = victivallis vadensis, 12 h, 2 µM
Description: The drug is tested on Victivallis vadensis strain: ATCC BAA-548 for biotransformation. The drug concentrations were measured before and after a 12-h incubation by liquid-chromatography-coupled mass spectrometry (LC–MS)

[6] = bacteroides thetaiotaomicron, 12 h, 2 µM
Description: The drug is tested on Bacteroides thetaiotaomicron strain: 3731 for biotransformation. The drug concentrations were measured before and after a 12-h incubation by liquid-chromatography-coupled mass spectrometry (LC–MS)

[7] = The drug is tested on Providencia rettgeri strain: DSM1131 for biotransformation. The drug concentrations were measured before and after a 12-h incubation by liquid-chromatography-coupled mass spectrometry (LC–MS); format: ADME; design: dose 2 uM, timepoint 0 vs 12 hours; details: 2 µM
[8] = The drug is tested on Bacteroides sp. WH2 strain: WH2 for biotransformation. The drug concentrations were measured before and after a 12-h incubation by liquid-chromatography-coupled mass spectrometry (LC–MS); details: bacteroides sp. wh2, 12 h, 2 µM
[9] = The drug is tested on Bacteroides coprophilus strain: DSM18228 for biotransformation. The drug concentrations were measured before and after a 12-h incubation by liquid-chromatography-coupled mass spectrometry (LC–MS); details: 2 µM
[10] = The drug is tested on Clostridium ramosum strain: DSM1402 for biotransformation. The drug concentrations were measured before and after a 12-h incubation by liquid-chromatography-coupled mass spectrometry (LC–MS); details: thomasclavelia ramosa, 2 µM
[11] = The drug is tested on Coprococcus comes strain: ATCC27758 for biotransformation. The drug concentrations were measured before and after a 12-h incubation by liquid-chromatography-coupled mass spectrometry (LC–MS); format: ADME; design: dose 2 uM, timepoint 0 vs 12 hours; details: 2 µM
[12] = The drug is tested on Bifidobacterium breve strain: DSM20213 for biotransformation. The drug concentrations were measured before and after a 12-h incubation by liquid-chromatography-coupled mass spectrometry (LC–MS); details: 2 µM
[13] = parabacteroides distasonis, 12 h, 2 µM
Description: The drug is tested on Parabacteroides distasonis strain: ATCC8503 for biotransformation. The drug concentrations were measured before and after a 12-h incubation by liquid-chromatography-coupled mass spectrometry (LC–MS)

[14] = The drug is tested on Bacteroides xylanisolvens strain: DSM18836 for biotransformation. The drug concentrations were measured before and after a 12-h incubation by liquid-chromatography-coupled mass spectrometry (LC–MS); details: 2 µM
[15] = The drug is tested on Bacteroides dorei strain: DSM17855 for biotransformation. The drug concentrations were measured before and after a 12-h incubation by liquid-chromatography-coupled mass spectrometry (LC–MS); details: phocaeicola dorei, 2 µM
[16] = bacteroides thetaiotaomicron, 12 h, 2 µM; remark: listed apart in the source
Description: The drug is tested on Bacteroides thetaiotaomicron strain: 7330 for biotransformation. The drug concentrations were measured before and after a 12-h incubation by liquid-chromatography-coupled mass spectrometry (LC–MS)

[17] = anaerostipes sp., 12 h, 2 µM
Description: The drug is tested on Anaerostipes sp. strain: fecal isolate for biotransformation. The drug concentrations were measured before and after a 12-h incubation by liquid-chromatography-coupled mass spectrometry (LC–MS)

[18] = bacteroides fragilis, 12 h, 2 µM
Description: The drug is tested on Bacteroides fragilis strain: NCTC 9343 for biotransformation. The drug concentrations were measured before and after a 12-h incubation by liquid-chromatography-coupled mass spectrometry (LC–MS)

[19] = The drug is tested on Bacteroides vulgatus strain: ATCC8482 for biotransformation. The drug concentrations were measured before and after a 12-h incubation by liquid-chromatography-coupled mass spectrometry (LC–MS); details: phocaeicola vulgatus, 2 µM
[20] = The drug is tested on Collinsella aerofaciens strain: ATCC25986 for biotransformation. The drug concentrations were measured before and after a 12-h incubation by liquid-chromatography-coupled mass spectrometry (LC–MS); details: 2 µM
[21] = The drug is tested on Bacteroides pectinophilus strain: ATCC43243 for biotransformation. The drug concentrations were measured before and after a 12-h incubation by liquid-chromatography-coupled mass spectrometry (LC–MS); details: 2 µM
[22] = bacteroides eggerthii, 12 h, 2 µM
Description: The drug is tested on Bacteroides eggerthii strain: DSM20697 for biotransformation. The drug concentrations were measured before and after a 12-h incubation by liquid-chromatography-coupled mass spectrometry (LC–MS)

[23] = The drug is tested on Dorea formicigenerans strain: ATCC27755 for biotransformation. The drug concentrations were measured before and after a 12-h incubation by liquid-chromatography-coupled mass spectrometry (LC–MS); details: 2 µM
[24] = bifidobacterium adolescentis, 12 h, 2 µM
Description: The drug is tested on Bifidobacterium adolescentis strain: ATCC 15703 for biotransformation. The drug concentrations were measured before and after a 12-h incubation by liquid-chromatography-coupled mass spectrometry (LC–MS)

[25] = The drug is tested on Alistipes indistinctus strain: DSM22520 for biotransformation. The drug concentrations were measured before and after a 12-h incubation by liquid-chromatography-coupled mass spectrometry (LC–MS); details: 2 µM
[26] = The drug is tested on Collinsella intestinalis strain: DSM13280 for biotransformation. The drug concentrations were measured before and after a 12-h incubation by liquid-chromatography-coupled mass spectrometry (LC–MS); details: 2 µM
[27] = The drug is tested on Bacteroides ovatus strain: ATCC8483 for biotransformation. The drug concentrations were measured before and after a 12-h incubation by liquid-chromatography-coupled mass spectrometry (LC–MS); details: 2 µM
[28] = The drug is tested on Clostridium sporogenes strain: ATCC15579 for biotransformation. The drug concentrations were measured before and after a 12-h incubation by liquid-chromatography-coupled mass spectrometry (LC–MS); details: 2 µM
[29] = The drug is tested on Bacteroides caccae strain: ATCC43185 for biotransformation. The drug concentrations were measured before and after a 12-h incubation by liquid-chromatography-coupled mass spectrometry (LC–MS); details: 2 µM
[30] = The drug is tested on Bacteroides fragilis strain: ATCC43859 for biotransformation. The drug concentrations were measured before and after a 12-h incubation by liquid-chromatography-coupled mass spectrometry (LC–MS); details: 2 µM
[31] = The drug is tested on Eggerthella lenta strain: ATCC25559 for biotransformation. The drug concentrations were measured before and after a 12-h incubation by liquid-chromatography-coupled mass spectrometry (LC–MS); details: 2 µM
[32] = bacteroides fragilis, 12 h, 2 µM; remark: listed apart in the source
Description: The drug is tested on Bacteroides fragilis strain: DS-208 for biotransformation. The drug concentrations were measured before and after a 12-h incubation by liquid-chromatography-coupled mass spectrometry (LC–MS)

[33] = enterocloster bolteae, 12 h, 2 µM
Description: The drug is tested on Clostridium bolteae strain: ATCCBAA-613 for biotransformation. The drug concentrations were measured before and after a 12-h incubation by liquid-chromatography-coupled mass spectrometry (LC–MS)

[34] = bacteroides thetaiotaomicron, 12 h, 2 µM; remark: listed apart in the source
Description: The drug is tested on Bacteroides thetaiotaomicron strain: VPI-5482 for biotransformation. The drug concentrations were measured before and after a 12-h incubation by liquid-chromatography-coupled mass spectrometry (LC–MS)

[35] = The drug is tested on Anaerotruncus colihominis strain: DSM17241 for biotransformation. The drug concentrations were measured before and after a 12-h incubation by liquid-chromatography-coupled mass spectrometry (LC–MS); details: 2 µM
[36] = The drug is tested on Eubacterium hallii strain: DSM3353 for biotransformation. The drug concentrations were measured before and after a 12-h incubation by liquid-chromatography-coupled mass spectrometry (LC–MS); details: anaerobutyricum hallii, 2 µM
[37] = The drug is tested on Blautia luti strain: DSM14534 for biotransformation. The drug concentrations were measured before and after a 12-h incubation by liquid-chromatography-coupled mass spectrometry (LC–MS); format: ADME; design: dose 2 uM, timepoint 0 vs 12 hours; details: 2 µM
[38] = The drug is tested on Anaerococcus hydrogenalis strain: DSM7454 for biotransformation. The drug concentrations were measured before and after a 12-h incubation by liquid-chromatography-coupled mass spectrometry (LC–MS); details: 2 µM
[39] = The drug is tested on Ruminococcus gnavus strain: ATCC29149 for biotransformation. The drug concentrations were measured before and after a 12-h incubation by liquid-chromatography-coupled mass spectrometry (LC–MS); details: mediterraneibacter gnavus, 2 µM
[40] = The drug is tested on Ruminococcus torques strain: ATCC27756 for biotransformation. The drug concentrations were measured before and after a 12-h incubation by liquid-chromatography-coupled mass spectrometry (LC–MS); format: ADME; design: dose 2 uM, timepoint 0 vs 12 hours; details: 2 µM
[41] = The drug is tested on Enterobacter cancerogenus strain: ATCC35316 for biotransformation. The drug concentrations were measured before and after a 12-h incubation by liquid-chromatography-coupled mass spectrometry (LC–MS); details: 2 µM

Measured: Bacterial Biotransformation

CCN(CC)CCOC(=O)C1(C2CCCCC2)CCCCC1 [DICYCLOMINE]
Compound metabolized: [13] | [14] | [15] | [19] | [31] | [40]
Compound NOT metabolized: all other assays above
